In brackets after ≈: the same amount, converted by molar mass.
Columns and labels:
Assay in all cases: Antifungal activity (MIC), US NCCLS Standard Method M27-A, yeasts
Type in all cases: cell-based
Candida krusei = conditions: for MIC: Pichia kudriavzevii, read-out: MIC (minimal inhibitory concentration for growth)
Experimental: (§1) The antifungal activity of the compound of the invention was determined according to the US NCCLS Standard Method (M27-A, 1997) against yeasts (Candida, Cryptococcus); and according to the US NCCLS Standard Method (M38-P, 1998) against molds (Aspergillus). The result is expressed in values of MIC (minimal inhibitory concentration for growth, μg/ml) in Table 7.

Saccharomyces cerevisiae = conditions: for MIC: read-out: MIC (minimal inhibitory concentration for growth)
Experimental: as §1

Candida glabrata = conditions: for MIC: Nakaseomyces glabratus, read-out: MIC (minimal inhibitory concentration for growth)
Experimental: as §1

Row | MIC (minimal inhibitory concentration for growth) (Candida krusei) [µg/mL] | MIC (minimal inhibitory concentration for growth) (Saccharomyces cerevisiae) [µg/mL] | MIC (minimal inhibitory concentration for growth) (Candida glabrata) [µg/mL] | MIC (Candida krusei) [µg/mL] | MIC (Saccharomyces cerevisiae) [µg/mL] | MIC (Candida glabrata) [µg/mL] | SMILES
1 | 16 | 16 | 32 |  |  |  | Cc1c(CCO)c(N2CC[C@H](N(C)C)C2)n2c(nc3ccccc32)c1C#N [Example 66, 1-[(3S)-dimethylaminopyrrolidin-1-yl]-2-(2-hydroxyethyl)-3-methylpyrido[1,2-a]benzimidazole-4-carbonitrile]
2 | >128 | 64 | 16 |  |  |  | Cc1c(Cc2cccc(N)c2)c(N2CC[C@H](N(C)C)C2)n2c(nc3ccccc32)c1C#N [Example 60, 2-(3-Aminobenzyl)-1-[(3S)-dimethylaminopyrrolidinyl]-3-methylpyrido[1,2-a]benzimidazole-4-carbonitrile]
3 | 8 | 2 | 1 |  |  |  | Cc1c(C(C)C)c(N2CC[C@H](N(C)C)C2)n2c(nc3ccccc32)c1C#N [Example 87, 2-Isopropyl-1-[(3S)-dimethylaminopyrrolidin-1-yl]-3-methylpyrido[1,2-a]benzimidazole-4-carbonitrile]
4 |  |  |  | > 128 | > 32 | 128 (≈ 317 µM) | CCCCCCc1c(C)c(C#N)c2nc3ccccc3n2c1N1CCCN(C)CC1 [Example 12, 2-n-Hexyl-1-(4-methylhomopiperazin-1-yl)-3-methylpyrido[1,2-a]benzimidazole-4-carbonitrile]
5 |  |  |  | 64 (≈ 202 µM) | 16 (≈ 50.6 µM) | 32 (≈ 101 µM) | CCc1c(C)c(C#N)c2nc3ccccc3n2c1C1=CC(N)CC1 (stereo not drawn) [Example 95, 1-(3-Amino-1-cyclopenten-1-yl)-2-ethyl-3-methylpyrido[1,2-a]benzimidazole-4-carbonitrile]
6 |  |  |  | 32 (≈ 79.3 µM) | 2 (≈ 4.96 µM) | 16 (≈ 39.6 µM) | CCCCCCc1c(C)c(C#N)c2nc3ccccc3n2c1N1CC(CN(C)C)C1 [Example 11, 2-n-Hexyl-1-[3-(dimethylaminomethyl)azetidin-1-yl]-3-methylpyrido[1,2-a]benzimidazole-4-carbonitrile]

Row | SMILES | MIC (minimal inhibitory concentration for growth) (Candida krusei) [µg/mL] | MIC (minimal inhibitory concentration for growth) (Saccharomyces cerevisiae) [µg/mL] | MIC (minimal inhibitory concentration for growth) (Candida glabrata) [µg/mL] | MIC (Candida krusei) [µg/mL] | MIC (Saccharomyces cerevisiae) [µg/mL] | MIC (Candida glabrata) [µg/mL]
7 | Cc1c(-c2ccccc2)c(N2CC[C@H](N(C)C)C2)n2c(nc3ccccc32)c1C#N.O=CO [Example 6] | 0.5 | <0.063 | <0.063 |  |  | 
8 | CCc1c(C)c(C#N)c2nc3ccccc3n2c1NCCN(CC)CC [Example 1, 1-(2-N′,N′-Diethylaminoethylamino)-2-ethyl-3-methylpyrido[1,2-a]benzimidazole-4-carbonitrile] | 8 | 16 | 2 |  |  | 

Source: patent US20050113397A1, “Imidazo[1,2-a]pyridine derivative” (priority 2002, published 2005)
